Source: paper PMC7756392, “Syntheses of Thailandepsin B Pseudo‐Natural Products: Access to New Highly Potent HDAC Inhibitors via Late‐Stage Modification” (Chemistry (Weinheim an Der Bergstrasse, Germany), 2020)

Tests used:
acetylated α-tubulin = assay: Western blot, acetylated α-tubulin in HL60 cells; type: cell-based; conditions: for ac-tubulin: HL60 cells, 4 h
Experimental: (§1) LABTECH POLARstar OPTIMA plate reader (BMG Labtechnologies, Germany).
(§2) Western Blot: 2.5 x 10^5 HL60 cells were seeded in sterile 12-well plates and incubated with different concentrations of compound or DMSO for 4 h. Cells were washed with cold PBS, lysed with 90 µL SDS sample buffer (Cell Signaling, 62.5 mM Tris-HCl (pH 6.8 at 25°C), 2% w/v SDS, 10% v/v glycerol, 50 mM dithiothreitol, 0.01% bromophenol blue), shortly sonicated and heated to 95°C for 5 min. Cell extracts were used directly for SDS-PAGE or kept frozen at -20 […]
(§3) For the SDS-PAGE, 7 µL cell lysate were loaded on a 12.5% gel and the gel was run at 150V for approximately 1 h, followed by the transfer to a nitrocellulose membrane. The membrane was blocked with 5% milk in TBS-T 0.1% for 1 h at room temperature and washed (3 x 5 min) with TBS-T before adding the antibodies. Western blot analysis was performed with the following primary antibodies: anti-acetylated α-tubulin (Sigma-Aldrich, 1:1000), anti-acetyl-histone 3 (Millipore, 1:2000) and anti-GAPDH (Sigma-Aldrich, 1:5000) and secondary antibodies: anti-mouse-IgG-HRP (Sigma-Aldrich, 1:10000) and anti-rabbit IgG-HRP (Sigma- […]
(§4) Aldrich, 1:5000). The antibodies were all diluted in 3% milk in TBS-T 0.1%. Detection was performed via enhanced chemiluminescence (ECL Prime) using a FUSION-SL (PEQLAB) and the FUSION-CAPT software.
(§5) Figure 4: Western blot of acetyl-α-tubulin, acetyl-H3 and GAPDH after treatment of HL60 cells with different concentrations of 33 or DMSO for 4 h. GAPDH was used as loading control, DMSO as negative control. […]

acetylated histone 3 = assay: Western blot, acetyl-histone 3 in HL60 cells; type: cell-based
Experimental: as §1, §2, §3, §4, §5

## CCCC[C@H]1NC(=O)C[C@@H](/C=C/CCSC(C)=O)OC(=O)C[C@H](O)[C@@H]([C@@H](C)CC)NC(=O)[C@@H](C)NC1=O [compound 33]
Acetylated α-tubulin; 0.0001 µM
  ac-tubulin: 1.1%
Acetylated α-tubulin; 0.01 µM
  ac-tubulin: 1.1%
Acetylated α-tubulin; 0.1 µM
  ac-tubulin: 1.3%
Acetylated α-tubulin; 1 µM
  ac-tubulin: 1.4%
Acetylated α-tubulin; western blot
  levels of acetylated α-tubulin with increasing inhibitor concentration (in words): Constant levels
Acetylated histone 3; HL60 cells, 4 h
  isotype selectivity for class I HDACs in cells (western blot): selective inhibition of class I HDACs
Acetylated histone 3; HL60 cells, 4 h, 0.0001 µM
  ac-histone 3: 1.1%
Acetylated histone 3; HL60 cells, 4 h, 0.001 µM
  ac-histone 3: 0.9%
Acetylated histone 3; HL60 cells, 4 h, 0.01 µM
  ac-histone 3: 1.8%
Acetylated histone 3; HL60 cells, 4 h, 0.1 µM
  ac-histone 3: 4.4%
Acetylated histone 3; western blot
  levels of acetylated histone 3 with increasing inhibitor concentration (in words): increasing levels
